For 62 compounds, melting point results are on record in a melting point compilation (Tetko et al.; mined from patent text by program, amines drawn as free bases though some values may be those of a salt).

As for `CC(=O)NC[C@H]1CN(c2ccc(N3CCC(n4nnnc4CS(C)(=O)=O)CC3)c(F)c2)C(=O)O1`, the melting point turned out to be 192 °C.

On to `O=c1c(CCCCCc2cccnc2)cc2cccnc2n1-c1cccc([N+](=O)[O-])c1`, for which the melting point came to 155 °C.

`O=C(O)c1ccccc1Nc1ccc(O)c(Cl)c1` yielded a melting point of 180 to 183 °C.

In turn, `COC(=O)C1=C(C)NC(O)=C(C(=O)OC)C1c1cccc([N+](=O)[O-])c1` (configuration not stated) gave a melting point of 150 to 152 °C.

The compound `O=C(O)CCCCCCc1nc2ccccc2s1` registered a melting point of 62 to 63 °C.

As for `CN(C)C1Cc2cccc3[nH]c(=S)n(c23)C1` (configuration not stated), the melting point is 203 to 205 °C.

For the compound `CCn1c2c(nc(-c3ccc(Cl)cc3)c1=O)CCCC2`, the melting point was in the range of 110 to 113 °C.

`CCNC(=O)Nc1nc2cc(-c3cccnc3)cc(-c3cccc(OC)n3)c2s1` came in with a melting point of 300 °C.

`CCc1ccc(Oc2cnc(S)[nH]c2=O)cc1`: the melting point was more than 220 °C.

For `CCN1CCN(Cc2nc3sc4c(c3c(=O)n2-c2ccccc2Cl)CCCC4)CC1`, the melting point fell in the range of 140 to 142 °C.

On to `CC(=O)c1ccc(S(=O)(=O)Nc2ccccn2)cc1`, for which the melting point lay in the range of 198 to 199 °C.

In turn, `O=C(O)C1CCc2c(c3ccccc3n2C(=O)c2ccc(F)cc2)C1` (configuration not stated) returned a melting point of 180 to 182 °C.

In the case of `O=C(O)c1[nH]c(=O)c2ccc(Cl)cc2c1-c1ccccc1`, the melting point was more than 300 °C.

The compound `CCOC(=O)N(C(=S)NC(C)C)c1c(C(C)C)cc(Oc2ccccc2)cc1C(C)C` gave a melting point of 107 to 108 °C.

`CNCCc1cccc(N2C(=O)N(c3ccc(Cl)cc3Cl)Cc3cnc(Nc4ccccc4)nc32)c1` yielded a melting point of 120 to 122 °C.

For the compound `NS(=O)(=O)c1ccc(N2CN(c3ccccc3)CC2=O)cc1Cl`, the melting point was in the range of 257 to 259 °C.

The compound `CN1C(=O)CN=C(C2CCCCC2)c2ccccc21` had a melting point of 98 to 100 °C.

`N#Cc1cncc(C=O)c1` yielded a melting point of 96 to 98 °C.

As for `OC1(Cl)C=CC=CC1(O)Cl` (configuration not stated), the melting point is 113 to 114 °C.

Compound `OC1CSC(Oc2cccnc2-c2cncnc2)C(O)C1O` (configuration not stated) showed a melting point of 195 °C.

In the case of `Cc1c(C(=O)O)ccc(S(C)(=O)=O)c1N(C)C`, the melting point was in the range of 113 to 114 °C.

On to `Fc1ccc(C2CC(n3cncn3)c3ccccc3N2)cc1` (configuration not stated), for which the melting point was in the range of 184 to 186 °C.

The compound `CCOC(=O)c1ccc(Nc2ncccc2NS(=O)(=O)c2ccc(OC)cc2)cc1` came in with a melting point of 172 to 173 °C.

The compound `CCCCc1ncc(CNC(Cc2cccs2)C(=O)O)n1Cc1ccc(C(=O)O)cc1` (configuration not stated) registered a melting point of 151 to 152 °C.

The compound `COCCNC(=O)c1cccc(-c2cccc3c(C)c(Cc4cccc(C(F)(F)F)c4)sc23)c1` gave a melting point of 135 to 136 °C.

Turning to `Clc1ccc(SC(Cn2ccnc2)C23CC4CC(CC(C4)C2)C3)cc1Cl` (configuration not stated), the melting point is 179 to 181 °C.

`CC(C)(C)c1cc(CCc2ccccc2NC(=O)NCc2ccccc2)cc(C(C)(C)C)c1O` registered a melting point of 181 to 183 °C.

`CNC(=O)c1c(-c2ccccc2)noc1C=C(N)c1ccccc1` came in with a melting point of 181 to 183 °C.

`O=C(Nc1ccc(C(F)(F)F)cc1)Nc1nc(OCC(F)(F)F)cc(OCC(F)(F)F)n1` came in with a melting point of 167 to 168 °C.

`Cc1ccc2nc(C)c(CCN3CCC(c4noc5cc(F)ccc45)CC3)c(=O)n2c1` showed a melting point of 187 °C.

`CCc1nn(C2CN(C(C)C)C2)c2c(=O)[nH]c(-c3cc(S(C)(=O)=O)ccc3OCC(C)C)nc12` gave a melting point of 206 to 209 °C.

For the compound `Cn1c(-c2ccccc2)c(C2=CCC(C(=O)O)(C(=O)O)CC2)c2ccccc21`, the melting point fell in the range of 210 to 211 °C.

With `COCCc1sc2ncnc(N)c2c1-c1ccc(NC(=O)Nc2cc(C(F)(F)F)ccc2F)cc1`, the melting point was 209 to 211 °C.

Take `CCOC(=O)Cn1nc(-c2ccc(C)cc2)c(C(N)=O)c1N`: the melting point came out at 179 °C.

`CCOC(=O)c1cc2c(=O)n(C)c3ccccc3n2c1` showed a melting point of 197 to 198 °C.

In turn, `COc1cc(C=C(C=O)C(C=O)=Cc2ccc(OC(C)=O)c(OC)c2)ccc1OC(C)=O` had a melting point of 149 to 151 °C.

Compound `O=C1CCCC(=O)C1C(=O)c1ccccc1[N+](=O)[O-]` registered a melting point of 132 to 135 °C.

`CC(C)(C)OC(=O)NNc1ccc(N2C(=O)C=CC2=O)cn1` showed a melting point of 182 to 184 °C.

With `O=C(O)C1CCCCC1C(=O)CCSSCCC(=O)C1CCCCC1C(=O)O` (configuration not stated), the melting point was in the range of 167 to 170 °C.

The compound `CC(C)(C)C1=NN=C(N)SC1` returned a melting point of 75 to 77 °C.

In turn, `CCOC(=O)N1Cc2ccnnc2C(NN=C(C)C)C1` (configuration not stated) gave a melting point of 171 to 174 °C.

In turn, `Cc1cc(C)c(C(=O)C(F)(F)F)[nH]1` came in with a melting point of 80 °C.

On to `CCCCCCCNC(=O)N(C)c1cccc(-c2ccc(CC3SC(=O)NC3=O)cc2)c1` (configuration not stated), for which the melting point was 55 °C.

Take `Cc1cc(-n2ccnc2)c2cccc(OCc3c(Cl)ccc(S(=O)(=O)N4CCC[C@H]4C(=O)NCCN(C)C)c3Cl)c2n1`: the melting point was 88 °C.

In turn, `CCC(NC(=S)NCc1ccc(C(C)(C)C)cc1)c1ccc(NS(C)(=O)=O)c(F)c1` (configuration not stated) showed a melting point of 85 °C.

Compound `CO[C@@H]1CN(CCCOc2ccc(F)cc2)CC[C@@H]1NC(=O)c1cc(Cl)c(N)cc1O` (relative stereo) gave a melting point of 146 to 148 °C.

The compound `Cc1cc(C2=NN[C@H](C)Cc3cc4c(cc32)OCO4)ccc1N` yielded a melting point of 193 to 196 °C.

As to `COc1ccc2c(c1)CC(C(N)=O)N2C(C)=O` (configuration not stated), the melting point fell in the range of 196 to 197 °C.

Take `O=C(O)c1ccccc1-c1nc2cc(-c3ccccc3)ccc2s1`: the melting point was in the range of 177 to 178 °C.

`COc1cc(C(=O)N2CCC3(CC2)Cc2ccccc2O3)cc(OC)c1OC`: the melting point lay within 148 to 150 °C.

`Cc1ccccc1C(=O)Nc1ccc(C(=O)N2CCCC(O)c3cc(Cl)ccc32)c(C)c1` (configuration not stated) yielded a melting point of 224 to 226 °C.

Turning to `NC(=O)Cn1c(-c2ccc(Cl)cc2)nc2ncccc21`, the melting point is 280 to 283 °C.

Compound `O=[N+]([O-])c1ccc(NS(=O)(=O)c2cc(Cl)c(Cl)cc2Cl)c(Cl)c1` showed a melting point of 177 to 179 °C.

The compound `Nc1c(Cl)ncnc1Nn1cccc1` showed a melting point of 130 to 132 °C.

On to `Cc1nc(-c2ccc(Cl)cc2Cl)sc1C(=O)NCCCCN1CCC(c2ccc3c(c2OCCO)CCCC3)CC1`, for which the melting point is 122 to 124 °C.

As to `CCOC(=O)c1ccc(-c2ncc(-c3ccc(Cl)cc3)o2)cc1`, the melting point is 195 to 197 °C.

Take `CCNc1nc(NCC)nc(NCC)n1`: the melting point amounted to 74 °C.

Turning to `COc1c(N2CCC(n3ccnn3)C2)c(F)cc2c(=O)c(C(=O)O)cn(C3CC3)c12` (configuration not stated), the melting point fell in the range of 200 to 201 °C.

The compound `N=C(N)c1ccc(NC(=O)NC(=O)c2ccc(OCC(=O)O)cc2)cc1` returned a melting point of 285 to 288 °C.

In turn, `O=C1N(Cc2ccc(C(F)(F)F)o2)c2c(F)cccc2C12COc1cc3c(cc12)OCO3` (configuration not stated) displayed a melting point of 116 to 118 °C.

Consider `O=C(O)CCCc1cc2nc(Cl)ccc2n1S(=O)(=O)c1ccc2c(c1)CCO2`, for which the melting point amounted to 225 °C.

On to `COc1ccc(CC2CCC3=C(CCC(=O)N3)C2)cc1` (configuration not stated), for which the melting point was in the range of 176 to 177 °C.
